Source: PubChem BioAssay (NCI)
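1) Cells in 96-well plates. 2) Compound, 48 h, 5 concentrations. 3) Linear interpolation between surrounding doses. 4) Unreached endpoint = highest concentration. GI50 is the concentration that inhibits growth by half. Definition used: TGI = concentration required for complete inhibition of growth.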

Columns and labels:
Test in all cases: NCI tumour cell line growth inhibition, 48 h
A549 NSCLC = tested on: A549 NSCLC
LOX IMVI melanoma = tested on: LOX IMVI melanoma
OVCAR-4 ovarian = tested on: OVCAR-4 ovarian
K-562 leukemia = tested on: K-562 leukemia
DU-145 prostate = tested on: DU-145 prostate
786-0 renal = tested on: 786-0 renal
NCI-H23 lung = tested on: NCI-H23 lung
SNB-75 CNS = tested on: SNB-75 CNS
SW-620 colon = tested on: SW-620 colon
TK-10 renal = tested on: TK-10 renal
MDA-MB-231 breast = tested on: MDA-MB-231 breast
SK-MEL-2 melanoma = tested on: SK-MEL-2 melanoma
A498 renal = tested on: A498 renal
EKVX NSCLC = tested on: EKVX NSCLC
OVCAR-3 ovarian = tested on: OVCAR-3 ovarian
SK-MEL-5 melanoma = tested on: SK-MEL-5 melanoma
KM12 colon = tested on: KM12 colon
T-47D breast = tested on: T-47D breast
SR leukemia = tested on: SR leukemia
RXF 393 renal = tested on: RXF 393 renal
HOP-62 NSCLC = tested on: HOP-62 NSCLC
SNB-19 CNS = tested on: SNB-19 CNS
NCI/ADR-RES ovarian = tested on: NCI/ADR-RES ovarian
MOLT-4 leukemia = tested on: MOLT-4 leukemia
IGROV1 ovarian = tested on: IGROV1 ovarian
UO-31 renal = tested on: UO-31 renal
BT-549 breast = tested on: BT-549 breast
SF-539 CNS = tested on: SF-539 CNS
OVCAR-5 ovarian = tested on: OVCAR-5 ovarian
SK-MEL-28 melanoma = tested on: SK-MEL-28 melanoma
SF-295 CNS = tested on: SF-295 CNS
U251 CNS = tested on: U251 CNS
CCRF-CEM leukemia = tested on: CCRF-CEM leukemia
HS 578T breast = tested on: HS 578T breast
HCC-2998 colon = tested on: HCC-2998 colon
RPMI-8226 leukemia = tested on: RPMI-8226 leukemia
SF-268 CNS = tested on: SF-268 CNS
NCI-H226 lung = tested on: NCI-H226 lung
NCI-H460 lung = tested on: NCI-H460 lung
MALME-3M melanoma = tested on: MALME-3M melanoma
SK-OV-3 ovarian = tested on: SK-OV-3 ovarian
UACC-62 melanoma = tested on: UACC-62 melanoma
OVCAR-8 ovarian = tested on: OVCAR-8 ovarian
HOP-92 NSCLC = tested on: HOP-92 NSCLC
MDA-MB-435 = tested on: MDA-MB-435
CAKI-1 renal = tested on: CAKI-1 renal
HT29 colon = tested on: HT29 colon
HCT-15 colon = tested on: HCT-15 colon
MCF7 breast = tested on: MCF7 breast
HL-60(TB) leukemia = tested on: HL-60(TB) leukemia
ACHN renal = tested on: ACHN renal
NCI-H522 lung = tested on: NCI-H522 lung
PC-3 prostate = tested on: PC-3 prostate
SN12C renal = tested on: SN12C renal
HCT-116 colon = tested on: HCT-116 colon
UACC-257 melanoma = tested on: UACC-257 melanoma
COLO 205 colon = tested on: COLO 205 colon

Work on CCN(CC)CCOc1ccc(C(=C(C)Cc2ccc(OC)cc2)c2ccc(OCCN(CC)CC)cc2)cc1 yielded a GI50 (A549 NSCLC) of 4.52 µM, a TGI (A549 NSCLC) of 10.6 µM and a GI50 (LOX IMVI melanoma) of 3.04 µM. It also gave a TGI (LOX IMVI melanoma) of 6.44 µM, a GI50 (OVCAR-4 ovarian) of 4.48 µM and a TGI (OVCAR-4 ovarian) of 10.7 µM. It also gave a GI50 (K-562 leukemia) of 0.609 µM, a TGI (K-562 leukemia) of 2.08 µM and a GI50 (DU-145 prostate) of 4.59 µM. For the same compound, the TGI (DU-145 prostate) was 10.6 µM, the GI50 (786-0 renal) was 3.42 µM and the TGI (786-0 renal) was 7.04 µM. The GI50 (NCI-H23 lung) was 4.59 µM, the TGI (NCI-H23 lung) was 10.5 µM and the GI50 (SNB-75 CNS) was 13.4 µM. For the same compound, the TGI (SNB-75 CNS) was 25 µM, the GI50 (SW-620 colon) was 3.75 µM and the TGI (SW-620 colon) was 7.71 µM. The GI50 (TK-10 renal) was 3.86 µM, the TGI (TK-10 renal) was 8.67 µM and the GI50 (MDA-MB-231 breast) was 3.93 µM. It also gave a TGI (MDA-MB-231 breast) of 7.91 µM, a GI50 (SK-MEL-2 melanoma) of 4.8 µM and a TGI (SK-MEL-2 melanoma) of 9.83 µM. For the same compound, the GI50 (A498 renal) was 3.67 µM, the TGI (A498 renal) was 16 µM and the GI50 (EKVX NSCLC) was 3.84 µM. It also gave a TGI (EKVX NSCLC) of 9.13 µM, a GI50 (OVCAR-3 ovarian) of 3.2 µM and a TGI (OVCAR-3 ovarian) of 7.5 µM. It also gave a GI50 (SK-MEL-5 melanoma) of 4 µM, a TGI (SK-MEL-5 melanoma) of 7.47 µM and a GI50 (KM12 colon) of 3.66 µM. It also gave a TGI (KM12 colon) of 7.57 µM, a GI50 (T-47D breast) of 4.06 µM and a TGI (T-47D breast) of 10.9 µM. It also gave a GI50 (SR leukemia) of 0.805 µM, a TGI (SR leukemia) of 3.1 µM and a GI50 (RXF 393 renal) of 1.42 µM. For the same compound, the TGI (RXF 393 renal) was 5.11 µM, the GI50 (HOP-62 NSCLC) was 4.7 µM and the TGI (HOP-62 NSCLC) was 11.2 µM. For the same compound, the GI50 (SNB-19 CNS) was 4.44 µM, the TGI (SNB-19 CNS) was 8.84 µM and the GI50 (NCI/ADR-RES ovarian) was 4.24 µM. It also gave a TGI (NCI/ADR-RES ovarian) of 8.74 µM, a GI50 (MOLT-4 leukemia) of 3.13 µM and a TGI (MOLT-4 leukemia) of 7.55 µM. For the same compound, the GI50 (IGROV1 ovarian) was 4.18 µM, the TGI (IGROV1 ovarian) was 8.31 µM and the GI50 (UO-31 renal) was 3.42 µM. For the same compound, the TGI (UO-31 renal) was 6.82 µM, the GI50 (BT-549 breast) was 3.84 µM and the TGI (BT-549 breast) was 7.48 µM. It also gave a GI50 (SF-539 CNS) of 3.7 µM, a TGI (SF-539 CNS) of 7.37 µM and a GI50 (OVCAR-5 ovarian) of 3.68 µM. For the same compound, the TGI (OVCAR-5 ovarian) was 7.32 µM, the GI50 (SK-MEL-28 melanoma) was 3.72 µM and the TGI (SK-MEL-28 melanoma) was 7.21 µM. The GI50 (SF-295 CNS) was 4.36 µM, the TGI (SF-295 CNS) was 8.49 µM and the GI50 (U251 CNS) was 3.99 µM. The TGI (U251 CNS) was 8.34 µM, the GI50 (CCRF-CEM leukemia) was 2.65 µM and the TGI (CCRF-CEM leukemia) was 7.2 µM. For the same compound, the GI50 (HS 578T breast) was 4.34 µM, the TGI (HS 578T breast) was 11.5 µM and the GI50 (HCC-2998 colon) was 3.57 µM. The TGI (HCC-2998 colon) was 6.97 µM, the GI50 (RPMI-8226 leukemia) was 3.27 µM and the TGI (RPMI-8226 leukemia) was 8.39 µM. For the same compound, the GI50 (SF-268 CNS) was 4.22 µM, the TGI (SF-268 CNS) was 9.16 µM and the GI50 (NCI-H226 lung) was 4.37 µM. It also gave a TGI (NCI-H226 lung) of 11.3 µM, a GI50 (NCI-H460 lung) of 3.92 µM and a TGI (NCI-H460 lung) of 7.8 µM. The GI50 (MALME-3M melanoma) was 6.12 µM, the TGI (MALME-3M melanoma) was 10.5 µM and the GI50 (SK-OV-3 ovarian) was 5.06 µM. For the same compound, the TGI (SK-OV-3 ovarian) was 10.5 µM, the GI50 (UACC-62 melanoma) was 4.59 µM and the TGI (UACC-62 melanoma) was 8.87 µM. It also gave a GI50 (OVCAR-8 ovarian) of 6.08 µM, a TGI (OVCAR-8 ovarian) of 15.2 µM and a GI50 (HOP-92 NSCLC) of 1.07 µM. For the same compound, the TGI (HOP-92 NSCLC) was 8.98 µM, the GI50 (MDA-MB-435) was 3.96 µM and the TGI (MDA-MB-435) was 7.48 µM. For the same compound, the GI50 (CAKI-1 renal) was 3.63 µM, the TGI (CAKI-1 renal) was 7.38 µM and the GI50 (HT29 colon) was 2.83 µM. For the same compound, the TGI (HT29 colon) was 7.8 µM, the GI50 (HCT-15 colon) was 2.65 µM and the TGI (HCT-15 colon) was 6.25 µM. For the same compound, the GI50 (MCF7 breast) was 2.86 µM, the TGI (MCF7 breast) was 6.51 µM and the GI50 (HL-60(TB) leukemia) was 3.46 µM. For the same compound, the TGI (HL-60(TB) leukemia) was 7.77 µM, the GI50 (ACHN renal) was 4.46 µM and the TGI (ACHN renal) was 8.67 µM. For the same compound, the GI50 (NCI-H522 lung) was 4.56 µM, the TGI (NCI-H522 lung) was 9.86 µM and the GI50 (PC-3 prostate) was 3.88 µM. The TGI (PC-3 prostate) was 8.15 µM, the GI50 (SN12C renal) was 3.55 µM and the TGI (SN12C renal) was 7.19 µM. The GI50 (HCT-116 colon) was 2.95 µM, the TGI (HCT-116 colon) was 6.51 µM and the GI50 (UACC-257 melanoma) was 4.62 µM. The TGI (UACC-257 melanoma) was 9.29 µM, the GI50 (COLO 205 colon) was 4.45 µM and the TGI (COLO 205 colon) was 10.3 µM.
